Consider eight compounds from EP0891975A1 (priority 1996, dated 1997).

The structures appear in SMILES notation. Like-named read-outs stand apart in the source and are kept apart here.

A short description of data set [1]: Acute toxicity in mice in single oral administration. The following applies: mouse, in vivo, 30 mg/kg, 30 mg-active ingredient/kg, five 6-week-old CD-1 male mice, 7 days after administration, read-out: Death Rate (%). As to the method: Acute toxicity (p.o.) in mice of compound Nos. 8, 10, 13, 22, 23, 38, 42, and 52 was examined as follows. For comparison, compounds (IV), (V) and (VI) disclosed in JP-A-2-62876 were tested similarly.
Compound Nos. 8, 10, 22, 23, 38, and 42 (30 mg each) were each suspended in 10 ml of a 0.5% CMC-Na aqueous solution. Compound Nos. 13 and 52 and compounds (IV), (V) and (VI) (30 mg each) were each suspended in 10 ml of a 0.5% tragacanth gum aqueous solution. The suspension was orally given to a group each consisting of five 6-week-old CD-1 male mice (available from Charles River) at a dose of 10 ml-suspension per kg of the body weight. The number of dead mice was counted after 7 days from the administration to obtain a death rate.

Data set [2] concerns Larvae of Nilaparvata lugens. Kind of data set: Insecticidal effect on larvae of Nilaparvata lugens (spray on rice seedling in glass cylinder). The format is in vivo. The following applies: 120 h, read-out: Death Rate (%). As to the method:
A rice seedling was setted in a glass cylinder (inner diameter: 3 cm; length: 17 cm), and five 4th instar larvae of Nilaparvata lugens were set free therein. The agricultural and horticultural pesticide of the present invention (an emulsifiable concentrate) was prepared in accordance with Formulation Example 3 and diluted with water, and 0.5 ml of the resulting emulsion was sprayed in the cylinder by means of a spray tower (manufactured by Mizuho Rika) (duplicates at 1 concentration). Five days after the treatment, the mortality and agony of the larvae were examined to obtain a death rate (%) taking an agonizing insect as a 1/2 dead insect. The results obtained are shown in Table 4 (the compound numbers in Table 4 correspond to those in Tables 1, 2 and 3).

In data set [3] the test system is Tomato Late Blight Fungus (Phytophthora infestans). It counts as in vivo. The following applies: 250 ppm, 10 ml per pot foliar spray, tomato (Red Cherry), degree of disease vs untreated pot after 24 hours moist chamber and 4 days greenhouse.
The test system of data set [4] is Larvae of Plutella xylostella. In words: Insecticidal effect on larvae of Plutella xylostella (cabbage leaf disc dip). The conditions noted are these: foliar, 96 h, read-out: Death Rate (%). It counts as in vivo. As to the method: The agricultural and horticultural pesticide of the present invention (a wettable powder) was obtained in accordance with Formulation Example 1 and diluted with water to prepare a suspension having a prescribed concentration. A disc (6 cm in diameter) cut out of a cabbage leaf was soaked in the suspension for 1 minute, air-dried, and placed in a plastic cup (inner diameter: 7 cm). Five 3-instar larvae of Plutella xylostella were put in the cup (duplicates at one concentration). Four days later, the death and agony of the larvae were examined to obtain a death rate (%) taking an agonizing insect as a 1/2 dead insect. The results obtained are shown in Table 5 (the compound numbers in Table 5 correspond to those in Tables 1, 2 and 3).

Data set [5] deals with Rice Blast Fungus (Magnaporthe grisea). The format is in vivo. The conditions noted are these: 250 ppm, 10 ml/pot foliar spray, rice (Akinishiki), lesions per leaf counted vs untreated pot after 24 hours moist chamber and 7 days greenhouse.
Where [6] appears, read: 500 ppm, emulsifiable concentrate diluted with water, 4th instar larvae, five days after treatment, agonizing insect counted as 1/2 dead.
Setting [7] is: 500 ppm, wettable powder suspension, 3-instar larvae, four days later, agonizing insect counted as 1/2 dead.

`Cc1nn(C)c(C(=O)NCc2ccc(Oc3ccc4ccccc4c3)nc2)c1Br` [compound 23]: the mortality at 168 h in data set [1] came to 0%.
For the compound `Cn1nc2c(c1C(=O)NCc1ccc(Oc3ccc4ccccc4c3)nc1)CCC2` [compound 42], the figures for the mortality at 500 ppm in data set [2] (setting [6]) and in data set [4] (setting [7]) were 90% and 100%, respectively. For the same compound, the mortality at 168 h in data set [1] stood at 0%. In data set [3], the “Control Value (%)” value worked out at 100%.
As to `COc1c(C)nn(C)c1C(=O)N(Cc1ccc(Oc2ccc3ccccc3c2)nc1)C(C)=O` [compound 52], in data set [2] (setting [6]), the mortality at 500 ppm amounted to 90%. Besides, the mortality at 168 h in data set [1] is 0%. Further, the “Control Value (%)” value in data set [3] was found to be 100%.
For `Cc1nn(C)c(C(=O)NCc2ccc(Oc3cccc(Cl)c3)nc2)c1C` [compound 8], in that order: 100%, 0% and 100%.
With `Cc1nn(C)c(C(=O)NCc2ccc(Oc3cccc(C(F)(F)F)c3)nc2)c1C` [Compound No. 10, N-[6-(3-Trifluoromethylphenoxy)-3-pyridylmethyl]-1,3,4-trimethyl-5-pyrazolecarboxamide], the mortality at 500 ppm in data set [2] and in data set [4] was 100% each time. In addition, the “Control Value (%)” value turned out to be 89% in data set [5] and 100% in data set [3]. In data set [1], the mortality at 168 h was 0%.
`Cc1nn(C)c(C(=O)NCc2ccc(Oc3ccc4ccccc4c3)nc2)c1Cl` [compound 22]: the mortality at 168 h in data set [1] turned out to be 0%. In addition, the “Control Value (%)” value in data set [3] came out at 100%.
`CCc1nn(C)c(C(=O)NCc2ccc(Oc3cccc(C(F)(F)F)c3)nc2)c1Cl` [compound 13]: the mortality at 500 ppm in data set [2] (setting [6]) and in data set [4] (setting [7]) was 100% throughout. Further, the “Control Value (%)” value was 87% in data set [5] and 85% in data set [3]. For the same compound, in data set [1], the mortality at 168 h was found to be 0%.
As for `CCc1nn(C)c(C(=O)NCc2ccc(Oc3ccc4ccccc4c3)nc2)c1Cl` [compound 38], the mortality at 500 ppm in data set [2] (setting [6]) and in data set [4] (setting [7]) was 90% each time. For the same compound, the “Control Value (%)” value in data set [5] amounted to 100%. Also, the mortality at 168 h in data set [1] was 0%.
